The values that follow come from the SangsterLogP compilation.

A short description of this data set: method code SF-AS, from DOI: 10.1111/j.2042-7158.1992.tb05470.x, PMID: 1357140. The following applies: pH 7.4.

With `CC(C)NC(=S)NS(=O)(=O)c1cnccc1NC1CCCCCC1`, the logD was determined as 0.96.
